Data set [1] concerns vaginal epithelium. In words: Vaginal Maturation Index: percentage of leukocytes in vaginal smears of ovariectomized rats. Type of data set: in vivo, rat. Particulars: calcitriol alone at 0.006 μg. The protocol:
(§1) Three weeks after ovariectomy (at Day 21), the ovariectomized rats are divided in five distinct groups of at least eight animals per group, respectively: • Group 1: the ovariectomized rats receive no treatment at all • Group 2: the ovariectomized rats are administered once daily with an ovule comprising a liquid saline (placebo) • Group 3: the ovariectomized rats are administered once daily with an ovule comprising estradiol alone, in the absence of vitamin D analog • Group 4: the ovariectomized rats are administered once daily with an ovule comprising vitamin D analog alone, in the absence of estradiol. • Group 5: the ovariectomized rats are administered once daily with an ovule comprising (i) the combination of estradiol and vitamin D analog.
(§2) Each of the Groups 1, 2, 3, 4 and 5 of ovariectomized rats receives the indicated treatment during a period of time of six weeks (thus until Day 63).
(§3) Smears of vaginal tissue are collected from each of the tested animal by gentle scraping along the wall of the vagina the day before the first treatment and the day following the last treatment for determining the Vaginal Maturation Index (VMI).
(§4) For each rat, 2 samples are taken by gentle scraping along the wall of the vagina. […]
(§5) VMI is assessed as a ratio obtained through performing a random count of 3 major cell types. […]

For data set [2], the system named is vaginal epithelium. Particulars: oral 0.500 mcg calcitriol/day, at least one year, vs non-supplemented postmenopausal women; cited from earlier work.
The nature of data set [3]: Calcium plasma level in ovariectomized rats. Type of data set: in vivo, rat. The protocol: as §1, §2
For data set [4], the system named is vaginal epithelium. In words: Vaginal epithelium thickness evaluation in ovariectomized rats. Type of data set: in vivo, rat. Particulars: 6-week treatment.
From the text: (§6) 8-10 weeks-old female Sprague Dawley rats (Janvier, France) are first acclimated during a period of time of one week or more.
(§7) The acclimated rats undergo a bilateral ovariectomy (at “Day 0”), so as to induce an experimental menopause.
as §1, §2
One part of the vagina tissue material is paraffin-embedded. Slices of the paraffin-embedded vaginal tissue are stained for studying and measuring the vaginal epithelium thickness as well as the vaginal epithelium morphology. […]

The nature of data set [5]: Body weight evolution in ovariectomized rats during 6-week local treatment. Particulars: 6-week treatment, irrespective of the dose. Type of data set: in vivo, rat.
From the text: as §6, §7, §1, §2
The body weight of each tested animal is monitored twice a week.

The test system of data set [6] is vaginal epithelium. In words: Vaginal Maturation Index: percentage of cornified cells in vaginal smears of ovariectomized rats. The class given is in vivo, rat. Particulars: calcitriol, irrespectively of the doses tested. Here is the method:
as §1, §2, §3, §4, §5

Data set [7] concerns vaginal epithelium. In words: Histology of the vaginal tissue cornified cell layer in ovariectomized rats (FIG. 3). Type of data set: in vivo, rat. The protocol: as §1, §2
One part of the vagina tissue material is paraffin-embedded. Slices of the paraffin-embedded vaginal tissue are stained for studying and measuring the vaginal epithelium thickness as well as the vaginal epithelium morphology.
Vaginal tissue is then separated into two parts: • one half is fixed in 10% neutral buffered formalin and paraffin-embedded for epithelium thickness evaluation and morphology (H&E coloration) • the second half will be immediately frozen and stored at −80° C. for further evaluation.
Vaginal tissue is embedded in paraffin, sectioned and stained with hematoxylin/eosine (2 slides/rat) using a fully automated multi-stainer system for histological analysis, the Multistainer ST5020 in conjunction with the CV5030 Coverslipper marketed by the Company Leica Biosystems (Germany).

For data set [8], the system named is vaginal maturation index and urogenital symptoms. The following applies: oral raloxifene 60 mg/day with 400 IU vitamin D and 600 mg calcium, 3 months, vs risedronate-based regimen; cited from earlier work.
The next data set deals with vaginal atrophy. Particulars: vaginal suppository 1000 IU, daily for 8 weeks, 44 postmenopausal women; cited from earlier work.

Consider `C=C1/C(=C\C=C2/CCC[C@]3(C)[C@@H]([C@H](C)CCCC(C)(C)O)CC[C@@H]23)C[C@@H](O)C[C@@H]1O` [Calcitriol, 1α,25-dihydroxyvitamin D3], for which the “vaginal epithelium content in leukocytes” value in the data set with vaginal epithelium [1] was “no effect”. In addition, the “squamous maturation of the vaginal epithelium” value in the data set on vaginal epithelium [2] is recorded as “resulted in squamous maturation”. For the same compound, the “calcium plasma level: significance versus placebo” value in [3] (Calcitriol 0.08 μg) and in data set [3] (Calcitriol 0.1 μg) was “**** (“****” means p<0.001 versus placebo)” throughout. Further, the calcium plasma level result in data set [3] (calcitriol dose 0.006 μg) was “did not cause any significant change”; in [3] (dose of 0.08 μg) it was “significantly increased”; in data set [3] (dose of 0.1 μg), “significantly increased”. The “vaginal epithelium thickness as compared to placebo” value in the data set with vaginal epithelium [4] (calcitriol alone, irrespective of the dose tested) is recorded as “did not cause any change”. Also, the body weight evolution entry in data set [5] is listed as “did not cause any change”. In the data set on vaginal epithelium [6], the “content of the vaginal epithelium cornified cells” value is “no significant change”.
`C[C@]12CC[C@@H]3c4ccc(O)cc4CC[C@H]3[C@@H]1CC[C@@H]2O` [Estradiol, (17beta)-estra-1,3,5(10)-triene-3,17-diol]: the “vaginal epithelium thickness as compared to placebo” value with vaginal epithelium [4] (0.4 μg dose of estradiol) is recorded as “high increase”. The body weight evolution entry in data set [5] is on record as “did not cause any change”. Moreover, the “cornified cell layer in histological photograph” value in the data set on vaginal epithelium [7] (0.02 μg dose of estradiol (FIG. 3B)) was “does not cause a detectable change”; in the data set with vaginal epithelium [7] (0.08 μg estradiol (FIG. 3C)) it was “thickness and a density which increase with the increasing doses”; in the data set on vaginal epithelium [7] (0.4 μg estradiol (FIG. 3D)) it was “thickness and a density which increase with the increasing doses”.
For `O=C(c1ccc(OCCN2CCCCC2)cc1)c1c(-c2ccc(O)cc2)sc2cc(O)ccc12` [raloxifene], in data set [8], the vaginal maturation index entry is listed as “improvement” and the “vaginal pH” value was “improvement”.
Turning to vitamin D, in the data set with vaginal atrophy, the “superficial cells in the vaginal epithelium” value is reported as “significant increase” and the “vaginal pH” value is listed as “significant decrease”.

The record behind these values is patent US20190224213A1, “VAGINAL COMPOSITION COMPRISING A COMBINATION OF ESTROGEN AND VITAMIN D” (CHEMO RESEARCH S.L., priority 2016, published 2019).
